Among the data in publication PMC8587938 (2021) are binding and Kb values, retold here.

For assay [1], the system named is a2^14AP (DNA, G4, 2-aminopurine at 14 (replaces A)) GGGGTGTGGGGACAGGGGTGTGGGG
In words: 2-aminopurine fluorescence quenching titration. Conditions: K+ 25 mM; K-phosphate buffer, pH 7.0, 20 °C; 30 µM DNA; significant quenching only above ligand–DNA ratio 1.

For assay [2], the system named is a2^12AP (DNA, G4, 2-aminopurine at 12 (replaces A)) GGGGTGTGGGGACAGGGGTGTGGGG
In words: 2-aminopurine fluorescence quenching titration. Conditions: K+ 25 mM; K-phosphate buffer, pH 7.0, 20 °C; 30 µM DNA; significant quenching only above ligand–DNA ratio 1.

Assay [3] deals with a2 (DNA, G4) GGGGTGTGGGGACAGGGGTGTGGGG
In words: 1H NMR / NOESY titration. Particulars: K+ 25 mM; K-phosphate buffer, pH 7.0, 25 °C, 2.0 mM a2; terminal stacking on G1-G11-G15-G25 quartet.

Assay [4] has the same test system. The assay is described as follows: fluorimetric titration (ligand fluorescence quenching). Conditions: K+ 25 mM; K-phosphate buffer, pH 7.0, 20 °C; 20 μM ligand.

In the case of `Cc1cc2c3c([n+](C)c4ccc(F)cc4c3c1)-c1cc(F)ccc1N2C`, the binding result in assay [1], in assay [2] and in assay [3] was “yes” throughout. In addition, the Kb in assay [4] is 1.4 ± 0.2 × 10^6 M^-1.
